Measurements reported in patent US9249129B2, “Morpholino substituted urea derivatives as mTOR inhibitors” (CELLZOME LIMITED, priority 2010, dated 2016).

Experiments:
Assay in all cases: kinobeads assay with mass spectrometry detection of kinases (kinase selectivity profile)
Assay type in all cases: binding
kinases (kinome) [1] = target: T1, kinases (kinome) (Homo sapiens, UniProt Q99570); conditions: PIK3R4 (Other), IPI00024006
T1 construct: determined in kinobeads assays with mass spectrometry detection of kinases as described previously; endogenous in cells; host or cells: cell lysate
Text: (§1) The protein kinase complement of the human genome (the kinome) was described previously (Manning et al., 2002. Science 298(5600):1912-1934). Sequence accession numbers are defined by the International Protein Index (IPI) (Kersey et al., 2004. Proteomics 4(7):1985-1988).

kinases (kinome) [2] = target: T2, kinases (kinome) (Homo sapiens, UniProt O14976); conditions: GAK (Other), IPI00298949
T2 construct: determined in kinobeads assays with mass spectrometry detection of kinases as described previously; endogenous in cells; host or cells: cell lysate
T2 sequence (O14976 1-1311): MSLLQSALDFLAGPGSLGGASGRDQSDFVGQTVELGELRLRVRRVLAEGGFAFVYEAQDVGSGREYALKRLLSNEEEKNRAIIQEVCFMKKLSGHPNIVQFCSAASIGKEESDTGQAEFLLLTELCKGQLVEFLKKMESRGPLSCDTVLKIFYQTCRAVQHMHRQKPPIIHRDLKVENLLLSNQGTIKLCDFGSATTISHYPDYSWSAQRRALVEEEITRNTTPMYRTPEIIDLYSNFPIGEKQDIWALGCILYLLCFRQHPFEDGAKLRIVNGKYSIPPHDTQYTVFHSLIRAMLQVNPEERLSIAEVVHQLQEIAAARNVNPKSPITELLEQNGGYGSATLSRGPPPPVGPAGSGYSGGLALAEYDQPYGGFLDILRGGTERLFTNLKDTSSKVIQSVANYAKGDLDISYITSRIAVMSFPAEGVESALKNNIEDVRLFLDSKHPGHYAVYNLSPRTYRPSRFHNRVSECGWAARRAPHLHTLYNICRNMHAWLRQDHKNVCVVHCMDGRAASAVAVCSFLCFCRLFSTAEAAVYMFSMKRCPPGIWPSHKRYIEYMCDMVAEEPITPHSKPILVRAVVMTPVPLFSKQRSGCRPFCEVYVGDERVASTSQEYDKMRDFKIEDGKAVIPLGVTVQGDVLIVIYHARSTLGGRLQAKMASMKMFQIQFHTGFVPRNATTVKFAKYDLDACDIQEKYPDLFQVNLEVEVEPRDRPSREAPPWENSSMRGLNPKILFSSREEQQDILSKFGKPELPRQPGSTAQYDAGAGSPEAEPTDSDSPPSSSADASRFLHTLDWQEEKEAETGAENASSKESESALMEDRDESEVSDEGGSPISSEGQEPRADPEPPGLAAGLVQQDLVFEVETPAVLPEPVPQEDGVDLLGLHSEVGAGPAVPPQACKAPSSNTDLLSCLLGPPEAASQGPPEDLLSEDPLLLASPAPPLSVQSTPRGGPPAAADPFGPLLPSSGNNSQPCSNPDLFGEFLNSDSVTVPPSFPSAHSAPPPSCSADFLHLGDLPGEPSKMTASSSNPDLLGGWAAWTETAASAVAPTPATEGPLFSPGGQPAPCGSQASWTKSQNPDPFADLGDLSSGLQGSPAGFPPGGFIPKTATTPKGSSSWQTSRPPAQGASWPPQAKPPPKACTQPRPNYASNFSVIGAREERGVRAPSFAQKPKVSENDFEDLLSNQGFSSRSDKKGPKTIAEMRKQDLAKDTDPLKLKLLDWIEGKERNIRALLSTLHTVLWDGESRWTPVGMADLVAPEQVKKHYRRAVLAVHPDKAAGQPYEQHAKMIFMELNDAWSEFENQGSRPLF
Text: as §1

kinases (kinome) [3] = target: T3, kinases (kinome) (Homo sapiens, UniProt Q9P2K8); conditions: GCN2 (Other), IPI00163851
T3 construct: determined in kinobeads assays with mass spectrometry detection of kinases as described previously; endogenous in cells; host or cells: cell lysate
Text: as §1

kinases (kinome) [4] = target: T4, kinases (kinome) (Homo sapiens, UniProt Q99683); conditions: MAP3K5 (STE), IPI00412433
T4 construct: determined in kinobeads assays with mass spectrometry detection of kinases as described previously; endogenous in cells; host or cells: cell lysate
T4 sequence (Q99683 1-1374): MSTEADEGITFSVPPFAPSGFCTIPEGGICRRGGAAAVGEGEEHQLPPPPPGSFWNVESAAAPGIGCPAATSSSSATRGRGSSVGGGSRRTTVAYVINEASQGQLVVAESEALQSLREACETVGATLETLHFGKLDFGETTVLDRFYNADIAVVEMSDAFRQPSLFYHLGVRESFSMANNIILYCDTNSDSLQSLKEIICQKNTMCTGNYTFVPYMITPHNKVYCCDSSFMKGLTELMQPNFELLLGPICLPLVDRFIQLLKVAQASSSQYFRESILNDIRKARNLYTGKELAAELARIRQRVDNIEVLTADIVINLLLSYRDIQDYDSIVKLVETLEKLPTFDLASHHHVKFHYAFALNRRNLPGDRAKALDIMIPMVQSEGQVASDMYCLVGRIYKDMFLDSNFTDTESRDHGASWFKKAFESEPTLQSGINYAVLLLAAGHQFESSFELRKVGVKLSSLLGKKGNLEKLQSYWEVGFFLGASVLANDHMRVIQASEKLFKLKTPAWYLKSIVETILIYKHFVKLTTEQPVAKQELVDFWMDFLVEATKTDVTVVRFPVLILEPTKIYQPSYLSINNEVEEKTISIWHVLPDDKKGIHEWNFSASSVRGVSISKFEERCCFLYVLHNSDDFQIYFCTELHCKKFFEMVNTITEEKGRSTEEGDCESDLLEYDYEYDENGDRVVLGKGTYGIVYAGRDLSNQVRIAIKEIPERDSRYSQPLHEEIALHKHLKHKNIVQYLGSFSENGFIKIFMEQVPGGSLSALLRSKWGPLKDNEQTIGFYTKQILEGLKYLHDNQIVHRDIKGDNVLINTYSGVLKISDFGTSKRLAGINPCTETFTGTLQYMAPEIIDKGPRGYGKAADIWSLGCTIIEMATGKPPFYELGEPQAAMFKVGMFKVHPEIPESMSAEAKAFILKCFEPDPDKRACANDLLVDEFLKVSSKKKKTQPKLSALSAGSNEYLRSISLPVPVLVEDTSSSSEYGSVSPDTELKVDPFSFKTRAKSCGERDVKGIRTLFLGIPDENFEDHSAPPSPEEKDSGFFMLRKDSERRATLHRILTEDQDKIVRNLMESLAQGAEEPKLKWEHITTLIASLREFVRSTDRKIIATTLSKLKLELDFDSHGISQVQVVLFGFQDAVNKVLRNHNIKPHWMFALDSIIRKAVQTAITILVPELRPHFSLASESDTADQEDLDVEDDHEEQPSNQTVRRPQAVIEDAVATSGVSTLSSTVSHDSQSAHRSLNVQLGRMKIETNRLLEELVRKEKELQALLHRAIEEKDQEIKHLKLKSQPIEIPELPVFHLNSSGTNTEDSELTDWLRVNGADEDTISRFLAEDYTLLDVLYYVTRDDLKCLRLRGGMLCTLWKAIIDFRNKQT
Text: as §1

kinases (kinome) [5] = target: T5, kinases (kinome) (Homo sapiens, UniProt Q16584); conditions: MLK3 (TKL), IPI00000977
T5 construct: determined in kinobeads assays with mass spectrometry detection of kinases as described previously; endogenous in cells; host or cells: cell lysate
Text: as §1

Measured: IC50

T1 sequence (Q99570 whole entry): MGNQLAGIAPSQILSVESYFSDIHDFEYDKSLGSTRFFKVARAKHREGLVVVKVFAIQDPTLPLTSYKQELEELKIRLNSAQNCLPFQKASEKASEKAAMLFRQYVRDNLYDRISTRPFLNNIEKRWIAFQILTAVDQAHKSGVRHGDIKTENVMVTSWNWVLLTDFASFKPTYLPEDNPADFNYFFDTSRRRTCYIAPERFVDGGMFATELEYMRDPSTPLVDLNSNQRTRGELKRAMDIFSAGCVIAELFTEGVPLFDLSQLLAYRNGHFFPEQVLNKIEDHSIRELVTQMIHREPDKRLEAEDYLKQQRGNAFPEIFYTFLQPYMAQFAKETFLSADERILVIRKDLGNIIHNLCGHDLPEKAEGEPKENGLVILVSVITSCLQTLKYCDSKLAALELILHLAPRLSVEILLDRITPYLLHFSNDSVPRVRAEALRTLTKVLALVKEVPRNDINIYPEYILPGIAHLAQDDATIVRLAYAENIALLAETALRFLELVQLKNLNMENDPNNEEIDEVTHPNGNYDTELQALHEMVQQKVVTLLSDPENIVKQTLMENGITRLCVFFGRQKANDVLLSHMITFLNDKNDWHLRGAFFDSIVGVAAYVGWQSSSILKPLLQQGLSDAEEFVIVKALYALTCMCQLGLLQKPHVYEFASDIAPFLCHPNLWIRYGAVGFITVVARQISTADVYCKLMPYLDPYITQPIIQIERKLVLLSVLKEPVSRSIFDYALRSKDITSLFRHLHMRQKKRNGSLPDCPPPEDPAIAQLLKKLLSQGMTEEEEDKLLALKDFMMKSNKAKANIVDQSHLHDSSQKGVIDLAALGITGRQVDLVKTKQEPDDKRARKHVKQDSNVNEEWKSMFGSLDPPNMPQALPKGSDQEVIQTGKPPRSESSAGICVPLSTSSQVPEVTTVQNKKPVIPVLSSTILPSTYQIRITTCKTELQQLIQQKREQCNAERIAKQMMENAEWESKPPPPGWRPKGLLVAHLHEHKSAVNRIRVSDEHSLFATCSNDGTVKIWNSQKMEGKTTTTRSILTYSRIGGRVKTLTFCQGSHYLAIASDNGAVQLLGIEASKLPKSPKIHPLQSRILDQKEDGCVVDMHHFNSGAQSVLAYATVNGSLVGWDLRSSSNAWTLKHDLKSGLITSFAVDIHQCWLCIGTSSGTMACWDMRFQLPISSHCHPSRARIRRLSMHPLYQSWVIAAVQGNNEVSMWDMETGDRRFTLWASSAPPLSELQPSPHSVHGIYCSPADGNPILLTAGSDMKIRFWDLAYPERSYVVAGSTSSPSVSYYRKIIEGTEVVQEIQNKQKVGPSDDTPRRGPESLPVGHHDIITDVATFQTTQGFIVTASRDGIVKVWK
T3 sequence (Q9P2K8 whole entry): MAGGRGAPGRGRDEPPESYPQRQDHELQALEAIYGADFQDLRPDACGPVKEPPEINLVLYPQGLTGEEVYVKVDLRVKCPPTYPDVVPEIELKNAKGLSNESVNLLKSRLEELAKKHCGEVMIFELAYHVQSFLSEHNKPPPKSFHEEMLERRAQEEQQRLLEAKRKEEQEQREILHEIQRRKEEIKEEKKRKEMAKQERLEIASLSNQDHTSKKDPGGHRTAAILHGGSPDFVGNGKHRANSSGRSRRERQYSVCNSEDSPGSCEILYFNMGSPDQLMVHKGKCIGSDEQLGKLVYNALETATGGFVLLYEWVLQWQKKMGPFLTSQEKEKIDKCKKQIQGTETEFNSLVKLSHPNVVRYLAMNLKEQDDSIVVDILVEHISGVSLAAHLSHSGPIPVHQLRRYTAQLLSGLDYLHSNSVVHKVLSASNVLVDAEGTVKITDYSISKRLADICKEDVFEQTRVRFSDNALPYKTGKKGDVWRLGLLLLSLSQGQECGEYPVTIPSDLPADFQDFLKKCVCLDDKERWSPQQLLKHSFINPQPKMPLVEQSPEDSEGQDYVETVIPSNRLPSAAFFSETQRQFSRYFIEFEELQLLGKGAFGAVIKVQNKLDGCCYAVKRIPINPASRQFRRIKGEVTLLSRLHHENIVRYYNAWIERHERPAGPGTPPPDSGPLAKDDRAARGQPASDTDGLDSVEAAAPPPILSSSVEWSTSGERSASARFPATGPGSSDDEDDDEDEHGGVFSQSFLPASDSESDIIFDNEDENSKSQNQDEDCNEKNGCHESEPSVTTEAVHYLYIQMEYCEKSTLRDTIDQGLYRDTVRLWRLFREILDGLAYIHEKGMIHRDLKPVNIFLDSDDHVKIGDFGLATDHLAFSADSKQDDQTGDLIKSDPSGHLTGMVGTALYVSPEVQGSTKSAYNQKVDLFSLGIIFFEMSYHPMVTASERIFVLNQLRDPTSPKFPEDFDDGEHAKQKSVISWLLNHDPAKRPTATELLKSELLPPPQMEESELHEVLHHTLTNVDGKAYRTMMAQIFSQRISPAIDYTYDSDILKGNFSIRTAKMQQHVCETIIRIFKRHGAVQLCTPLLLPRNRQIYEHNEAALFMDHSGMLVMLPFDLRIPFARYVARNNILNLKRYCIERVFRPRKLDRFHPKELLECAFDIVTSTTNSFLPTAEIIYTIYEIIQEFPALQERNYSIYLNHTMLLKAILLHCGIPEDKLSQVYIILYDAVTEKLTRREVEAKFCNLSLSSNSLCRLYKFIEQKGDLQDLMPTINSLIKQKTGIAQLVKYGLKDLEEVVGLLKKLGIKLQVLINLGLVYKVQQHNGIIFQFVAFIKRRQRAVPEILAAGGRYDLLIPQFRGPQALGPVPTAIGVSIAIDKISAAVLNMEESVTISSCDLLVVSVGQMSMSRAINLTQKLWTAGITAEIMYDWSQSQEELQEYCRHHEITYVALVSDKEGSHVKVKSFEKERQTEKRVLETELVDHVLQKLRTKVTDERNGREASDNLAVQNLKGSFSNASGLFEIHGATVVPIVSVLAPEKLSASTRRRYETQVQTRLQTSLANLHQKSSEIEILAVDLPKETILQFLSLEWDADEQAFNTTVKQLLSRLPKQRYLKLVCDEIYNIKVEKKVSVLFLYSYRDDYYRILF
T5 sequence (Q16584 whole entry): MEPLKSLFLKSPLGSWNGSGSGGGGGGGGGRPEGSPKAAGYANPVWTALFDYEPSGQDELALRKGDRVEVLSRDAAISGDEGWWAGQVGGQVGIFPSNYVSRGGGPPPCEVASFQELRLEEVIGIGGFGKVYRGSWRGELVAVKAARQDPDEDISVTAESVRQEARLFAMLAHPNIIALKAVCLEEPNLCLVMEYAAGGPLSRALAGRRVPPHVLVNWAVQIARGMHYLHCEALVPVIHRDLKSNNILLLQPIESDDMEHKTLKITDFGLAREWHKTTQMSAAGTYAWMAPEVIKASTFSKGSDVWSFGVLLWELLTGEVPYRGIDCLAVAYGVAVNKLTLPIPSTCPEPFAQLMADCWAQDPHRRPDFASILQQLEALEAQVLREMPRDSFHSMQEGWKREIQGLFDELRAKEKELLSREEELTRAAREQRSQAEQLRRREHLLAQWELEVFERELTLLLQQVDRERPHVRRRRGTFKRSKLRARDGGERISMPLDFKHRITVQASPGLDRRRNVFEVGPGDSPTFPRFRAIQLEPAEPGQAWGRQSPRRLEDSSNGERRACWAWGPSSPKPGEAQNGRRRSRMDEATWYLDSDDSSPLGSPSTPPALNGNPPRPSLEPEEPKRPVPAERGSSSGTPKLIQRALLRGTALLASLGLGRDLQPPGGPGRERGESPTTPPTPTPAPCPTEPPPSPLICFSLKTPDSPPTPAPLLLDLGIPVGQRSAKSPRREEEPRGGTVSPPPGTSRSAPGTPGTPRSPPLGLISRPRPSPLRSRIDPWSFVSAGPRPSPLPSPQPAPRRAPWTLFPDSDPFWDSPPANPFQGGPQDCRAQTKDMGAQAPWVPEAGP

C[C@H]1COCCN1c1nc(-c2ccc(NC(=O)NC3CC3)cc2)cc(-c2cccnc2S(C)(=O)=O)n1 [Example 46, (S)-1-cyclopropyl-3-(4-(2-(3-methylmorpholino)-6-(2-(methylsulfonyl)pyridin-3-yl)pyrimidin-4-yl)phenyl)urea]
> 10 µM: kinases (kinome) [1] | kinases (kinome) [2] | kinases (kinome) [3]

C[C@H]1COCCN1c1nc(-c2ccc(NC(=O)NC3CC3)cc2)cc(-c2ccccc2S(C)(=O)=O)n1 [Example 4, (S)-1-cyclopropyl-3-(4-(2-(3-methylmorpholino)-6-(2-(methylsulfonyl)phenyl)pyrimidin-4-yl)phenyl)urea]
> 10 µM: all assays above

C[C@H]1COCCN1c1nc(-c2ccc(NC(=O)N[C@H]3CCC[C@@H]3O)cc2)cc(-c2cc(F)ccc2S(C)(=O)=O)n1 [Example 76, 1-(4-(6-(5-fluoro-2-(methylsulfonyl)phenyl)-2-((S)-3-methylmorpholino)pyrimidin-4-yl)phenyl)-3-((1S,2S)-2-hydroxycyclopentyl)urea]
> 10 µM: kinases (kinome) [1] | kinases (kinome) [4] | kinases (kinome) [2]

CCNC(=O)Nc1ccc(-c2cc(-c3ccccc3C#N)nc(N3CCOC[C@@H]3C)n2)cc1 [Example 8, (S)-1-(4-(6-(2-cyanophenyl)-2-(3-methylmorpholino)pyrimidin-4-yl)phenyl)-3-ethylurea]
> 10 µM: kinases (kinome) [5]

C[C@H]1COCCN1c1cc(-c2ccccc2S(C)(=O)=O)nc(-c2ccc(NC(=O)NC3CC3)cc2)n1 [Example 6, (S)-1-cyclopropyl-3-(4-(4-(3-methylmorpholino)-6-(2-(methylsulfonyl)phenyl)pyrimidin-2-yl)phenyl)urea]
> 10 µM: kinases (kinome) [5] | kinases (kinome) [3]

C[C@H]1COCCN1c1cc(-c2ccccn2)nc(-c2ccc(NC(=O)NCCO)cc2)n1 [Example 43, (S)-1-(2-hydroxyethyl)-3-(4-(4-(3-methylmorpholino)-6-(pyridin-2-yl)pyrimidin-2-yl)phenyl)urea]
not listed: kinases (kinome) [4]
> 10 µM: all other assays above

C[C@H]1COCCN1c1nc(-c2ccc(NC(=O)NC3CC3)cc2)cc(-c2cc(F)ccc2S(C)(=O)=O)n1 [Example 40, (S)-1-cyclopropyl-3-(4-(6-(5-fluoro-2-(methylsulfonyl)phenyl)-2-(3-methylmorpholino)pyrimidin-4-yl)phenyl)urea]
not listed: kinases (kinome) [3]
> 10 µM: all other assays above
